pIC50: −log10 of the molar value.
Legend:
[1] = tested on: S6K1 (Thr389) phosphorylation (mTORC1 activity) in FKBP12 knock-out 293T cells; assay: Inhibition of S6K1 (Thr389) phosphorylation in FKBP12 knock-out 293T cells (ELISA); assay type: cell-based, human; conditions: for inhibition of S6K1 (Thr389) phosphorylation in the absence of FKBP12 (in words) / inhibition at 10 µM: FKBP12 knock-out cells; for inhibition at 10 µM: Homo sapiens, HEK-293T, 10 μM (highest tested concentration); for selectivity for FKBP12 compared with RAD001 (in words): wild-type versus FKBP12 knock-out cells
Description: Example Generation of FKBP 12 knock-out cells. A CRISPR/Cas9 system was used to deliver ribonucleoprotein complexes containing guide RNA sequences that target FKBP12 (ac[…], location 1369062; ccactactcac[…], location 1369181) in HEK293T cells using Lipofectamine CRISPRMAX transfection reagent (Invitrogen CMAX00008). Cell clones were screened by immunoblotting with anti-FKBP-specific antibody (Novus, NB300-508). Single cells that were deficient for FKBP12 protein were selected and cloned.
(§1) Treatment of wild-type (WT) and FKBP12 knock-out 293T cells with RAD001 (everolimus) and test compounds. WT and FKBP12 knock-out 293T cells were cultured in Dulbecco's modified Eagle's medium (Gibco #11971-025) supplemented with 10% fetal bovine serum (Gibco #26140-079). Cells were plated at a density of 15,000 cells per well in poly-D-Lysine coated 96-well plates (Corning, #354461) and were incubated at 37° C., 5% CO2 for 24 hours until they reached ˜80% confluence. Cells were treated with RAD001 or test compounds reconstituted in dimethyl sulfoxide (DMSO) using a 8-11-point dose range, from 0.001 pM to 10 μM. All treatments were performed in duplicates for 2 hours at 37° C. Cell culture media supplemented with blank dimethyl sulfoxide (DMSO) was used as a negative control for all compounds. Phosphorylated amounts of S6K1 (Thr389) were measured using an ELISA kit (Invitrogen 85-86052-11), following the manufacture's protocol.
(§2) S6K1 is an immediate downstream target of mTORC1 and therefore phosphorylation of S6K1 at Thr389 residue is used to measure mTORC1 activity (PMID: 16968213). Amounts of phosphorylated S6K1 (Thr389) were measured in WT and FKBP12 knock-out 293T cells treated with either RAD001 or Compound 44 (FIGS. 1A and 1B), and Compound 45 (FIGS. 1C and 1D).

[2] = tested on: S6K1 (Thr389) phosphorylation (mTORC1 activity) in wild-type (WT) 293T cells; assay: Inhibition of S6K1 (Thr389) phosphorylation in wild-type 293T cells (ELISA); assay type: cell-based, human; conditions: for pIC50: Homo sapiens, HEK-293T, 2 h, wild-type 293T cells, 2 hours treatment; for fold lower potency compared with RAD001 (by IC50) / extent of inhibition of S6K1 (Thr389) phosphorylation: wild-type cells; for extent of inhibition of S6K1 (Thr389) phosphorylation: with increasing concentrations
Description: as §1, §2

[3] = In vitro microsomal metabolic stability, CD-1 mouse liver microsomes; assay type: in vitro ADME; conditions: for Remaining (T = 60 min): with NADPH; for Remaining (T = NCF60 min): without NADPH regenerating system; for Remaining (T = 60 min) / Remaining (T = NCF60 min): 60 min
Description: (§3) Buffers: PBK Buffer: 50 mM potassium phosphate buffer (PPB), pH 7.2, with 3.3 mM Magnesium Chloride.
(§4) TA Intermediate solution: Compound or control (3 μL) diluted from stock solution (10 mM) with 297 μL 90.0% methanol/water. (Conc: 100 μM; 1.0% DMSO, 89.1% MeOH).
(§5) Control cocktail intermediate solution: Each control (3 μL) was diluted with 291 μL 90.0% methanol/water.
(§6) Diluted TA intermediate stock solution and PC control stock were made by transferring 80 μL of 100 μM TA stock solution into new tubes and then adding 720 μL of 1.0% DMSO in 50 mM potassium phosphate buffer (conc. 10 μM; 1.0% DMSO, 8.91% MeOH).
(§7) Preparation of Liver microsomes working solution (1.25×)(final Conc.: 0.5 mg/mL).
(§8) Acetonitrile:methanol (9:1, v/v)(including 200 ng/mL tolbutamide and 200 ng/ml labetalol hydrochloride as internal standards).
(§9) Working solution: Intermediate solution (80 μL) was diluted with 720 μL 1.0% DMSO in 50 mM potassium phosphate buffer (Conc.: 10 μM; 1.0% DMSO, 8.91% MeOH)
(§10) Procedure: Stock solution was added to each of the time point plates. Microsomes solution (360 μL/well), TA/PC (45 μL/well), and NADPH (45 μL/well) min. (Conc: 1.0 μM, 0.10% DMSO, 0.891% MeOH) were added to the incubation plates. To the T60 and NCF60 plate, TA (15 ul/well) and Microsomes (120 ul) were added. To the blank plate, microsome (50 ul/well) with stop solution (150 ul/well) were added. At the end of each time point, 50 ul/well was aliquoted from the incubation plate. The sampling plates were shaken for approximately 10 min. on a shaker and the samples were centrifuged at 4000 rpm for 15 min. Supernatant (120 μL) was transferred for LC/MS/MS.Compounds from Table 3 were incubated at 37° C. with liver microsomes (pooled from multiple donors) at 1 μM in the presence of a NADPH regenerating system at 0.5 mg/ml microsomal protein. Positive controls included testosterone (3A4 substrate), propafenone (2D6) and diclofenac (2C9), which were incubated with microsomes in the presence of an NADPH regenerating system. At time points (0, 5, 10, 20, 30 and 60 minutes), samples were removed and immediately mixed with cold acetonitrile containing the internal standard (IS). Test compounds incubated with microsomes without the NADPH regenerating system for 60 min are also included. A single point for each test condition (n=1) was obtained, and samples were analyzed by LC/MS/MS. Disappearance of the test compound was assessed based on peak area ratios of analyte/IS (no standard curve).

[4] = In vitro microsomal metabolic stability, human liver microsomes; assay type: in vitro ADME; conditions: for Remaining (T = 60 min): with NADPH; for Remaining (T = NCF60 min): without NADPH regenerating system; for Remaining (T = 60 min) / Remaining (T = NCF60 min): 60 min
Description: as §3, §4, §5, §6, §7, §8, §9, §10

[5] = Mouse liver microsomes, 1 μM, 0.5 mg/ml protein, NADPH
[6] = CD-1, mouse, mouse liver microsomes, pH 7.2
[7] = human, human liver microsomes, pH 7.2

Row | Compound | inhibition of S6K1 (Thr389) phosphorylation in the absence of FKBP12 (in words) [1] | pIC50 [2] | fold lower potency compared with RAD001 (by IC50) [2] [fold] | extent of inhibition of S6K1 (Thr389) phosphorylation [2] | selectivity for FKBP12 compared with RAD001 (in words) [1] | Remaining (T = 60 min) ([3]; Mouse liver microsomes) [%] | Remaining (T = NCF60 min) ([3]; Mouse liver microsomes) [%] | further results
1 | COC1C(=O)[C@H](C)C[C@H](C)/C=C/C=C/C=C(\C)C(NS(=O)(=O)c2cccc(C)c2)C[C@@H]2CC[C@@H](C)[C@@](O)(O2)C(=O)C(=O)N2CCCC[C@H]2C(=O)OC([C@H](C)CC2CC[C@@H](O)C(OC)C2)CC[C@H](C)/C=C(\C)C1O (stereo partly drawn) [Compound 72, N-((3S,6S,7E,9R,10R,12R,14S,15E, 17E,19E,23S,26R,27R,34aS)-9,27-dihydroxy-3-((R)-1-((1S,3R,4R)-4-hydroxy-3-methoxycyclohexyl)propan-2-yl)-10-methoxy-6,8,12,14,20,26-hexamethyl-1,11,28,29-tetraoxo-1,4,5,6,9,10,11,12,13,14,21,22,23,24,25,26,27,28,29,31,32,33,34,34a-tetracosahydro-3H-23,27-epoxypyrido[2,1-c][1]oxa[4]azacyclohentriacontin-21-yl)-3-methylbenzenesulfonamide] | inhibited S6K1 (Thr389)phosphorylation in a dose dependent manner | 9.04 | 5.2 | near complete inhibition |  |  |  | inhibition at 10 µM [1]: 40%
2 | COc1ccc(NC2C[C@@H]3CC[C@@H](C)[C@@](O)(O3)C(=O)C(=O)N3CCCCC3C(=O)O[C@H]([C@H](C)C[C@@H]3CC[C@@H](O)[C@H](OC)C3)CC[C@H](C)/C=C(\C)[C@@H](O)[C@@H](OC)C(=O)[C@H](C)C[C@H](C)/C=C/C=C/C=C/2C)cc1 (stereo partly drawn) [Compound 47, (3S,6S,7E,9R,10R,12R,14S,15E,17E,19E,23S,26R,27R,34aS)-9,27-dihydroxy-3-((R)-1-((1S,3R,4R)-4-hydroxy-3-methoxycyclohexyl)propan-2-yl)-10-methoxy-21-((4-methoxyphenyl)amino)-6,8,12,14,20,26-hexamethyl-5,6,9,10,12,13,14,21,22,23,24,25,26,27,32,33,34,34a-octadecahydro-3H-23,27-epoxypyrido[2,1-c][1]oxa[4]azacyclohentriacontine-1,11,28,29(4H,31H)-tetraone] | did not inhibit S6K1 (Thr389)phosphorylation at any tested concentrations | 7.16 | 219 | near complete inhibition | relatively more selective to FKBP12 compared with RAD001 |  |  | 
3 | CO[C@@H]1C[C@H](C[C@@H](C)[C@@H]2CC[C@H](C)/C=C(\C)[C@@H](O)[C@@H](OC)C(=O)[C@H](C)C[C@H](C)/C=C/C=C/C=C(\C)C(N(C)c3ccccc3)C[C@@H]3CC[C@@H](C)[C@@](O)(O3)C(=O)C(=O)N3CCCCC3C(=O)O2)CC[C@H]1O (stereo partly drawn) [Compound 63, (3S,6S,7E,9R,10R,12R,14S,15E,17E,19E,23S,26R,27R,34aS)-9,27-dihydroxy-3-((R)-1-((1S,3R,4R)-4-hydroxy-3-methoxycyclohexyl)propan-2-yl)-10-methoxy-6,8,12,14,20,26-hexamethyl-21-(methyl(phenyl)amino)-5,6,9,10,12,13,14,21,22,23,24,25,26,27,32,33,34,34a-octadecahydro-3H-23,27-epoxypyrido[2,1-c][1]oxa[4]azacyclohentriacontine-1,11,28,29(4H,31H)-tetraone] |  | 8.61 | 10 | near complete inhibition | more selective than RAD001 |  |  | inhibition at 10 µM [1]: 17%
4 | CO[C@H]1C[C@@H]2CC[C@@H](C)[C@@](O)(O2)C(=O)C(=O)N2CCCC[C@H]2C(=O)O[C@H]([C@H](C)C[C@@H]2CC[C@@H](O)[C@H](OC)C2)CC[C@H](C)/C=C(\C)[C@@H](O)[C@@H](OC)C(=O)[C@H](C)C[C@H](C)/C=C/C=C/C=C/1C [32-Deoxo Rapamycin, 32-deoxorapamycin, reference compound] |  |  |  |  |  | 36 | 110 | CL ([3]; Mouse liver microsomes): 35.1 µL/min/mg; CLint ([3]; Mouse liver microsomes): 139 mL/min/kg; T1/2 [3, 5]: 39.5 min; CL ([4]; Human liver microsomes): 405 µL/min/mg; CLint ([4]; Human liver microsomes): 364 mL/min/kg; T1/2 ([4]; Human liver microsomes, 1 μM, 0.5 mg/ml protein, NADPH): 3.4 min; Remaining (T = 60 min) ([4]; Human liver microsomes): 0.00%; Remaining (T = NCF60 min) ([4]; Human liver microsomes): 96%
5 | CO[C@@H]1C[C@H](C[C@@H](C)[C@@H]2CC[C@H](C)/C=C(\C)[C@@H](O)[C@@H](OC)C(=O)[C@H](C)C[C@H](C)/C=C/C=C/C=C(\C)C(Nc3cnccn3)C[C@@H]3CC[C@@H](C)[C@@](O)(O3)C(=O)C(=O)N3CCCCC3C(=O)O2)CC[C@H]1O (stereo partly drawn) [Compound 52] | did not inhibit S6K1 (Thr389)phosphorylation at any tested concentrations | 8.04 | 25 | near complete inhibition | selective to FKBP12 |  |  | 
6 | Rapamycin [reference compound] |  |  |  |  |  | 27 | 102 | CL ([3]; Mouse liver microsomes): 43.1 µL/min/mg; CLint ([3]; Mouse liver microsomes): 171 mL/min/kg; T1/2 [3, 5]: 32.1 min
7 | CO[C@@H]1C[C@H](C[C@@H](C)[C@@H]2CC[C@H](C)/C=C(\C)[C@@H](O)[C@@H](OC)C(=O)[C@H](C)C[C@H](C)/C=C/C=C/C=C(\C)C(Nc3ccsc3)C[C@@H]3CC[C@@H](C)[C@@](O)(O3)C(=O)C(=O)N3CCCCC3C(=O)O2)CC[C@H]1O (stereo partly drawn) [Compound 60, (3S,6S,7E,9R,10R,12R,14S,15E,17E,19E,23S,26R,27R,34aS)-9,27-dihydroxy-3-((R)-1-((1S,3R,4R)-4-hydroxy-3-methoxycyclohexyl)propan-2-yl)-10-methoxy-6,8,12,14,20,26-hexamethyl-21-(thiophen-3-ylamino)-5,6,9,10,12,13,14,21,22,23,24,25,26,27,32,33,34,34a-octadecahydro-3H-23,27-epoxypyrido[2,1-c][1]oxa[4]azacyclohentriacontine-1,11,28,29(4H,31H)-tetraone] |  |  |  |  |  | 5.6 | 75 | CLint scaled at 1 µM [3, 6]: 370 mL/min/kg; microsomal CLint at 1 µM [3, 6]: 93.5 µL/min/mg; half-life at 1 µM ([3]; CD-1, pH 7.2, Mouse liver microsomes, 1 μM, 0.5 mg/ml protein, NADPH): 14.8 min; Remaining (T = 60 min) ([4]; Human liver microsomes): 6.6%; Remaining (T = NCF60 min) ([4]; Human liver microsomes): 99%; CLint scaled at 1 µM [4, 7]: 80.4 mL/min/kg; microsomal CLint at 1 µM [4, 7]: 89.3 µL/min/mg; half-life at 1 µM ([4]; pH 7.2, Human liver microsomes, 1 μM, 0.5 mg/ml protein, NADPH): 16 min

Source: patent US20240360153A1 (Regeneron Pharmaceuticals, Inc., priority 2023, published 2024)
